Converted amounts (≈) assume the structure as drawn. Where two headings read alike, the source gives them in different places.
What was measured:
[1] = not given; remark: listed apart in the source
[2] = test system: A2780 ovarian carcinoma cells; assay: Antiproliferative activity on A2780 cells (MTT); assay type: cell-based, human; details: four days of incubation; for IC50: Homo sapiens, A2780, 96 h, read-out: Cellular activity pIC50 C.2. (converted)
Experimental: All compounds tested were dissolved in DMSO and further dilutions were made in culture medium. Final DMSO concentrations never exceeded 0.1% (v/v) in cell proliferation assays. Controls contained A2780 cells and DMSO without compound and blanks contained DMSO but no cells. MTT was dissolved at 5 mg/ml in PBS. A glycine buffer comprised of 0.1 M glycine and 0.1 M NaCl buffered to pH 10.5 with NaOH (1 N) was prepared (all reagents were from Merck).
The human A2780 ovarian carcinoma cells (a kind gift from Dr. T. C. Hamilton [Fox Chase Cancer Centre, Pa., USA]) were cultured in RPMI 1640 medium supplemented with 2 mM L-glutamine, 50 μg/ml gentamicin and 10% fetal calf serum. Cells were routinely kept as monolayer cultures at 37° C. in a humidified 5% CO2 atmosphere. Cells were passaged once a week using a trypsin/EDTA solution at a split ratio of 1:40. All media and supplements were obtained from Life Technologies. Cells were free of mycoplasma contamination as determined using the Gen-Probe Mycoplasma Tissue Culture kit (supplier: BioMérieux).
Cells were seeded in NUNC™ 96-well culture plates (Supplier: Life Technologies) and allowed to adhere to the plastic overnight. Densities used for plating were 1500 cells per well in a total volume of 200 μl medium. After cell adhesion to the plates, medium was changed and drugs and/or solvents were added to a final volume of 200 μl. Following four days of incubation, medium was replaced by 200 μl fresh medium and cell density and viability was assessed using an MTT-based assay. To each well, 25 μl MTT solution was added and the cells were further incubated for 2 hours at 37° C. The medium was then carefully aspirated and the blue MTT-formazan product was solubilized by addition of 25 μl glycine buffer followed by 100 μl of DMSO. […] Within an experiment, the results for each experimental condition are the mean of 3 replicate wells. For initial screening purposes, compounds were tested at a single fixed concentration of 10^−6 M. For active compounds, the experiments were repeated to establish full concentration-response curves. For each experiment, controls (containing no drug) and a blank incubation (containing no cells or drugs) were run in parallel. The blank value was subtracted from all control and sample values. For each sample, the mean value for cell growth (in absorbance units) was expressed as a percentage of the mean value for cell growth of the control. […] Herein the effects of test compounds are expressed as pIC50 (the negative log value of the IC50-value) (see Table F-2).

[3] = molecular target: histone deacetylase (HeLa nuclear extracts); assay: In vitro assay for inhibition of histone deacetylase (Fluor de Lys, HeLa nuclear extracts); assay type: biochemical; design: key: pIC50 = negative log of IC50; details: Fluor de Lys substrate
Excerpt: The HDAC Fluorescent Activity Assay/Drug Discovery Kit of Biomol (cat. No: AK-500-0001) was used. The HDAC Fluorescent Activity Assay is based on the Fluor de Lys (Fluorogenic Histone deAcetylase Lysyl) substrate and developer combination. The Fluor de Lys substrate, comprises an acetylated lysine side chain. Deacetylation of the substrate sensitizes the substrate so that, in the second step, treatment with the Fluor de Lys developer produces a fluorophore.
HeLa nuclear extracts (supplier: Biomol) were incubated at 60 μg/ml with 75 μM of substrate. The Fluor de Lys substrate was added in a buffer containing 25 mM Tris, 137 mM NaCl, 2.7 mM KCl and 1 mM MgCl2.6H2O at pH 7.4. After 30 min, 1 volume of the developer was added. The fluorophore was excited with 355 nm light and the emitted light (450 nm) was be detected on a fluorometric plate reader.
For each experiment, controls (containing HeLa nuclear extract and buffer), a blank incubation (containing buffer but no HeLa nuclear extract) and samples (containing compound dissolved in DMSO and further diluted in buffer and HeLa nuclear extract) were run in parallel. In first instance, compounds were tested at a concentration of 10^−5M. […] All sample were tested 4 times. In each test the blank value was subtracted from both the control and the sample values. The control sample represented 100% of substrate deactylation. For each sample the fluorescence was expressed as a percentage of the mean value of the controls. […] Herein the effects of test compounds are expressed as pIC50 (the negative log value of the IC50-value) (see Table F-2).

[4] = Solubility C.3.c (chemiluminescent nitrogen detector); assay type: physicochemical; details: aqueous buffer; pH = 2.3; read-out: Solubility C.3.c. pH = 2.3 mg/ml
Excerpt: The solubility of a compound, at different pH's, can also be measured with the use of a chemiluminescent nitrogen detector (see Table F-2).

[5] = Kinetic solubility in aqueous media C.3.b (BD Gentest Solubility Scanner); assay type: physicochemical; details: aqueous buffer
Experimental: DMSO-stock solutions from 5000-9.8 μM (1/2 dilutions) are made in DMSO in a 96 well stock solution plate (200 μl per well). After each dilution the samples are mixed. Aliquots of these DMSO solutions (2 μl) are then transferred into 2 other 96 well buffer plates, containing 200 μl per well aqueous buffer. Each of the buffer plates contains either aqueous buffer pH 7.4 or aqueous buffer pH 4.0. After the last dilution the buffer plates are mixed and the samples are stabilized at room temperature for ½ hour. Dilution is done in duplicate for each compound to exclude occasional errors. Mixtures are then scanned in the BD Gentest Solubility Scanner for the occurrence of precipitation. Based on the absence/presence of precipitate in the mixtures the kinetic solubility is calculated by interpolation. Ranking is performed into the 3 classes. […] (see Table F-2).

[6] = Kinetic solubility in aqueous media C.3.a (nephelometer); assay type: physicochemical; details: aqueous buffer, kinetic from dmso stock; phosphate citrate buffer pH 7.4, turbidity score
Experimental: In the first dilution step, 10 μl of a concentrated stock-solution of the active compound, solubilized in DMSO (5 mM), was added to 100 μl phosphate citrate buffer pH 7.4 and mixed. In the second dilution step, an aliquot (20 μl) of the first dilution step was further dispensed in 100 μl phosphate citrate buffer pH 7.4 and mixed. Finally, in the third dilution step, a sample (20 μl) of the second dilution step was further diluted in 100 μl phosphate citrate buffer pH 7.4 and mixed. All dilutions were performed in 96-well plates. Immediately after the last dilution step the turbidity of the three consecutive dilution steps were measured with a nephelometer. Dilution was done in triplicate for each compound to exclude occasional errors. Based on the turbidity measurements a ranking is performed into 3 classes. Compounds with high solubility obtained a score of 3 and for this compounds the first dilution is clear. Compounds with medium solubility obtained a score of 2. For these compounds the first dilution is unclear and the second dilution is clear.

[7] = test system: p21 promoter reporter A2780 clone tumour; assay: p21 induction in vivo method C.6.c (tumour fluorescence in nude mice); details: dosed orally or intravenously daily during 6 days, 20-40 mpk
Experimental: Another method tests the capacity of compounds to induce p21 as the consequence of HDAC inhibition at the cellular level. […] The reporter gene is a fluorescent protein and the expression of the reporter gene is measured as the amount of fluorescent light emitted (see example C.6.b.). The last method is an in vivo method wherein mice are used for screening the pharmaceutical activity of a compound. The above described stably transformed tumour cells can be administered to mice in an amount sufficient to effect production of a tumour. After the tumour cells had sufficient time to form a tumour, a potentially active compound can be administered to the animals and the effect of said compound on the tumour cells is evaluated by measuring the expression of the reporter gene. Incubation with pharmaceutical active compounds will result in an increase of reporter gene expression compared to the control levels (see example C.6.c.)
A selected clone was injected subcutaneous (10^7 cells/200 μl) into the flank of nude mice and a calliper measurable tumour was obtained after 12 days. […] Tumours were evaluated for fluorescence by the in-house developed Automated Whole Body Imaging System (Fluorescent stereomicroscope type Olympus® SZX12 equipped with a GFP filter and coupled to a CCD camera type JAI® CV-M90 controlled by a software package based on the IMAQ Vision Software from National Instruments®).

[8] = kinetic from dmso stock, pH = 4, score, read-out: Solubility C.3.b pH = 4.
[9] = pH 7.4, kinetic from dmso stock, pH = 7, score, read-out: Solubility C.3.b. pH = 7

SMILES | % metabolism (human, 15 min, 5 μM) [%] | melting point [1] [°C] | IC50 [2] [nM] | Enzymatic activity pIC50 C.1. [3] | solubility [4] [µg/mL] | solubility at 0.5 h [5, 8] [µM] | solubility at 0.5 h [5, 9] [µM] | solubility [6] [µM] | Cellular activity pIC50 C.2. [2] | tumour fluorescence (p21 reporter) in vivo [7] | % metabolism (after 15 min of incubation with active microsomes, compound 5 μM) [%]
COc1cc(N)c(Cl)cc1C(=O)NC1CCN(CCCOc2ccc(F)cc2)CC1OC (stereo not drawn) [Cisapride] | 45 |  |  |  |  |  |  |  |  |  | 
O=C(NO)c1cnc(N2CCN(C(CO)c3cn(S(=O)(=O)c4ccccc4)c4ccccc34)CC2)nc1 (stereo not drawn) [Compound 3] |  | 206 | < 31.6 | >9 |  | 10 to 50 (≈ 5.23 to 26.1 µg/mL) | 10 to 50 (≈ 5.23 to 26.1 µg/mL) |  |  |  | 
CC(C)(C)c1ccc(C(C(O)CO)N2CCN(c3ncc(C(=O)NO)cn3)CC2)cc1 (stereo not drawn) [Compound 5] |  | 138 to 154 | 100 | 7.5 | 1390 (≈ 3.24 mM) |  |  |  |  |  | 
CC(C)(C)c1ccc([C@H]([C@H](O)CO)N2CCN(c3ncc(C(=O)NO)cn3)CC2)cc1 [Compound 6] |  | 163 to 171 | 39.8 | 7.9 | 900 (≈ 2.1 mM) |  |  | > 455 |  | comparable to R306465 | 
O=C(NO)c1cnc(N2CCN(C(CO)c3csc4ccccc34)CC2)nc1 (stereo not drawn) [Compound 9] |  |  | 50.1 | 9.8 |  |  |  |  |  |  | 
CC(C)(C)c1ccc(C(C(O)CO)N2CCN(c3ncc(C(=O)NO)cn3)CC2)cc1 (stereo not drawn) [Compound 10] |  |  |  | 7.0 |  |  |  | > 455 | 7.1 |  | 
CCCO [propanol] |  |  |  |  |  |  |  |  |  |  | 25

Continued, in another order:

% metabolism (human, 15 min, 5 μM) [%] | melting point [1] [°C] | IC50 [2] [nM] | Enzymatic activity pIC50 C.1. [3] | solubility [4] [µg/mL] | solubility at 0.5 h [5, 8] [µM] | solubility at 0.5 h [5, 9] [µM] | solubility [6] [µM] | Cellular activity pIC50 C.2. [2] | SMILES | tumour fluorescence (p21 reporter) in vivo [7] | % metabolism (after 15 min of incubation with active microsomes, compound 5 μM) [%]
 | 136 | 100 | 10.0 | 2900 (≈ 7.37 mM) | 10 to 50 (≈ 3.93 to 19.7 µg/mL) | 10 to 50 (≈ 3.93 to 19.7 µg/mL) |  |  | O=C(NO)c1cnc(N2CCN(C(CO)c3cccc4ccccc34)CC2)nc1 (stereo not drawn) [Compound 1] |  | 
 | 165 | 15.8 | 10.1 | 3250 (≈ 8.14 mM) | ≤ 10 | 10 to 50 (≈ 3.99 to 20 µg/mL) |  |  | O=C(NO)c1cnc(N2CCN(C(CO)c3cc4ccccc4s3)CC2)nc1 (stereo not drawn) [Compound 2] |  | 
 | 90 | 251 | 7.9 |  | ≤ 10 | 10 to 50 (≈ 4.4 to 22 µg/mL) |  |  | CCN(CC1CCN(c2ncc(C(=O)NO)cn2)CC1)C(CO)c1cc2ccccc2o1 (stereo not drawn) [Compound 4] |  | 
 |  | 20 | 9.7 |  | ≤ 10 | ≤ 10 |  |  | O=C(NO)c1cnc(N2CCN(C(CO)c3ccc4ccccc4c3)CC2)nc1 (stereo not drawn) [Compound 7] |  | 
 |  | 31.6 | 9.0 | 2200 (≈ 5.74 mM) | 10 to 50 (≈ 3.83 to 19.2 µg/mL) | 10 to 50 (≈ 3.83 to 19.2 µg/mL) |  |  | O=C(NO)c1cnc(N2CCN(C(CO)c3cc4ccccc4o3)CC2)nc1 (stereo not drawn) [Compound 8] |  | 

Reference: patent publication US7888360B2, “Pyridine and pyrimidine derivatives as inhibitors of histone deacetylase” (Janssen Pharmaceutica N.V., priority 2006, dated 2011)
